Laboratory results as given in patent US11813306B2, “Cyclic tetramer compounds as proprotein convertase subtilisin/kexin type 9 (PCSK9) inhibitors for the treatment of metabolic disorders” (NOVARTIS AG, priority 2018, dated 2023).

Target: human PCSK9 (Homo sapiens, UniProt Q8NBP7)
Assay: PCSK9 ligand binding assay (TR-FRET): interference with binding of human PCSK9 to human LDLR
Settings: for IC50: Human PCSK9 Alexa Fluor 647 / Human LDLR extracellular domain-Europium Kryptate; for Max % inhibition: efficacy (Amax), 100% = 1 uM unlabeled human PCSK9, 0% = DMSO
How it was run: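 Read-out was TR-FRET ratio (665 nm over 615 nm, 330 nm excitation) between Alexa Fluor 647-human PCSK9 (16 nM added) and Europium Kryptate-human LDLR ectodomain (4 nM added). Compound and PCSK9 were mixed 30 min before LDLR, then incubated 2 h. Inhibition was normalised to DMSO and unlabelled-PCSK9 controls, giving IC50 and Amax.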

human PCSK9, sequence (Q8NBP7 153-692): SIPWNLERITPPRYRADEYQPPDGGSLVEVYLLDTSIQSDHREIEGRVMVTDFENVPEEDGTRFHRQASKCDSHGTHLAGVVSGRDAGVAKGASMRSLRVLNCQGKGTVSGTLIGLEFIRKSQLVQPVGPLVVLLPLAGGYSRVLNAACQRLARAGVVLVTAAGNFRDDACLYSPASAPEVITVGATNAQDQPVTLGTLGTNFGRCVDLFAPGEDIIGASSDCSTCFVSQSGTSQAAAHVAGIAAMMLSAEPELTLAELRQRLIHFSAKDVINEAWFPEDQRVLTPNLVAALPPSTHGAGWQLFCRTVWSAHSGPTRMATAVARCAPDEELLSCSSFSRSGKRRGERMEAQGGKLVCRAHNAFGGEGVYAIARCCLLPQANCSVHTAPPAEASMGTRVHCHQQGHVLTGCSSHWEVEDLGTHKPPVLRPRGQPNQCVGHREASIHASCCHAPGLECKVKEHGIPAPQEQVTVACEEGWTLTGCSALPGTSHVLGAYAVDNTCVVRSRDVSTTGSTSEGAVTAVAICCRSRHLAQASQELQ
human PCSK9, sequence (Q8NBP7 31-152 partner limits assumed): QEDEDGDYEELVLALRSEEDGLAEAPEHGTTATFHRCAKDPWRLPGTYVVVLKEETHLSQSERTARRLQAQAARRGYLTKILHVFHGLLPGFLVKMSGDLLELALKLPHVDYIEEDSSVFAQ

COC[C@@H]1NC(=O)[C@H](C)N(Cc2ccc(Cl)cc2Oc2ccc(-c3cnc(CN4CC[C@H](N(C)C)C4)n3C)cc2)C(=O)C[C@@H](Cc2ccccc2)C(=O)N2CCC[C@@](Cc3ccc(Cl)cc3)(C2)NC1=O.Cl [Compound 72, (3R, 7S, 10S, 13R)-3-benzyl-6-(4-chloro-2-(4-(2-(((S)-3-(dimethylamino)pyrrolidin-1-yl)methyl)-1-methyl-1H-imidazol-5-yl)phenoxy)benzyl)-13-(4-chlorobenzyl)-10-(methoxymethyl)-7-methyl-1,6,9,12-tetraazabicyclo[11.3.1]heptadecane-2,5,8,11-tetraone]
IC50: 0.837 nM
Max % inhibition: 100.1%

C[C@H]1C(=O)N[C@@H](CO)C(=O)N[C@@]2(Cc3ccc(Cl)cc3)CCCN(C2)C(=O)[C@H]([C@@H]2CCc3ccccc32)CC(=O)N1Cc1cc(F)ccc1Oc1ccc(-c2cnc(CN(C)C)n2C)cc1 [Compound 73]
IC50: 1.36 nM
Max % inhibition: 95.0%

C[C@H]1C(=O)N[C@@H](CO)C(=O)N[C@@]2(Cc3ccc(Cl)cc3)CCCN(C2)C(=O)[C@H]([C@@H]2CCc3ccccc32)CC(=O)N1Cc1ccc(Cl)cc1Oc1ccc(-c2cnc(CN3CCCC3)n2C)cc1.Cl [Compound 74, (3S, 7S, 10S, 13R)-6-(4-chloro-2-(4-(1-methyl-2-(pyrrolidin-1-ylmethyl)-1H-imidazol-5-yl)phenoxy)benzyl)-13-(4-chlorobenzyl)-3-((S)-2,3-dihydro-1H-inden-1-yl)-10-(hydroxymethyl)-7-methyl-1,6,9,12-tetraazabicyclo[11.3.1]heptadecane-2,5,8,11-tetraone]
IC50: 1.73 nM
Max % inhibition: 99.1%

C[C@H]1C(=O)N[C@@H](CO)C(=O)N[C@@]2(Cc3ccc(Cl)cc3)CCCN(C2)C(=O)[C@H](Cc2ccccc2)CC(=O)N1Cc1c(F)cc(F)cc1Oc1ccc(-c2cnc(CN3CCCC3)n2C)cc1 [Compound 75, (3R, 7S, 10S, 13R)-3-benzyl-13-(4-chlorobenzyl)-6-(2,4-difluoro-6-(4-(1-methyl-2-(pyrrolidin-1-ylmethyl)-1H-imidazol-5-yl)phenoxy)benzyl)-10-(hydroxymethyl)-7-methyl-1,6,9,12-tetraazabicyclo[11.3.1]heptadecane-2,5,8,11-tetraone]
IC50: 0.758 nM
Max % inhibition: 113.3%

COC[C@@H]1NC(=O)[C@H](C)N(Cc2ccc(Cl)cc2Oc2ccc(-c3cnc(CN4CCN(C)CC4)n3C)cc2)C(=O)C[C@@H](Cc2ccccc2)C(=O)N2CCC[C@@](Cc3ccc(Cl)cc3)(C2)NC1=O.Cl [Compound 76, (3R, 7S, 10S, 13R)-3-benzyl-6-(4-chloro-2-(4-(1-methyl-2-((4-methylpiperazin-1-yl)methyl)-1H-imidazol-5-yl)phenoxy)benzyl)-13-(4-chlorobenzyl)-10-(methoxymethyl)-7-methyl-1,6,9,12-tetraazabicyclo[11.3.1]heptadecane-2,5,8,11-tetraone]
IC50: 0.81 nM
Max % inhibition: 101.7%

C[C@H]1C(=O)N[C@@H](CO)C(=O)N[C@@]2(Cc3ccc(Cl)cc3)CCCN(C2)C(=O)[C@H]([C@@H]2CCc3ccccc32)CC(=O)N1Cc1ccc(Cl)cc1Oc1ccc(-c2cnc(C3=CCN(C)C3)n2C)cc1.Cl [Compound 77, (3S,7S,10S,13R)-6-(4-chloro-2-(4-(1-methyl-2-(1-methyl-2,5-dihydro-1H-pyrrol-3-yl)-1H-imidazol-5-yl)phenoxy)benzyl)-13-(4-chlorobenzyl)-3-((S)-2,3-dihydro-1H-inden-1-yl)-10-(hydroxymethyl)-7-methyl-1,6,9,12-tetraazabicyclo[11.3.1]heptadecane-2,5,8,11-tetraone hydrochloride]
IC50: 0.979 nM
Max % inhibition: 71.9%

C[C@H]1C(=O)N[C@@H](CO)C(=O)N(C)[C@@]2(Cc3ccc(Cl)cc3)CCCN(C2)C(=O)[C@H](Cc2ccccc2)CC(=O)N1Cc1c(F)cc(Cl)cc1Oc1ccc(-c2cnc(CN(C)C)n2C)cc1 [Compound 79, (3R, 7S, 10S, 13R)-3-benzyl-6-(4-chloro-2-(4-(2-((dimethylamino)methyl)-1-methyl-1H-imidazol-5-yl)phenoxy)-6-fluorobenzyl)-13-(4-chlorobenzyl)-10-(hydroxymethyl)-7,12-dimethyl-1,6,9,12-tetraazabicyclo[11.3.1]heptadecane-2,5,8,11-tetraone]
IC50: 0.819 nM
Max % inhibition: 108.3%

C[C@H]1C(=O)N[C@@H](CO)C(=O)N[C@@]2(Cc3ccc(Cl)cc3)CCCN(C2)C(=O)[C@H](Cc2cccc(C(F)(F)F)c2)CC(=O)N1Cc1c(F)cc(Cl)cc1Oc1ccc(-c2cnc(CN(C)C)n2C)cc1 [Compound 80, (3R, 7S, 10S, 13R)-6-(4-chloro-2-(4-(2-((dimethylamino)methyl)-1-methyl-1H-imidazol-5-yl)phenoxy)-6-fluorobenzyl)-13-(4-chlorobenzyl)-10-(hydroxymethyl)-7-methyl-3-(3-(trifluoromethyl)benzyl)-1,6,9,12-tetraazabicyclo[11.3.1]heptadecane-2,5,8,11-tetraone]
IC50: 0.624 nM
Max % inhibition: 106.6%

C[C@H]1C[C@H]([C@@H]2CC(=O)N(Cc3ccc(Cl)cc3Oc3ccc(-c4cnc(CN(C)C)n4C)cc3)[C@@H](C)C(=O)N[C@@H](CO)C(=O)N(C)[C@H](Cc3ccc(Cl)cc3)CN(C)C2=O)c2ccccc21.Cl [Compound 81, (2S, 5S, 8R, 12S)-1-(4-chloro-2-(4-(2-((dimethylamino)methyl)-1-methyl-1H-imidazol-5-yl)phenoxy)benzyl)-8-(4-chlorobenzyl)-5-(hydroxymethyl)-2,7,10-trimethyl-12-((1R,3S)-3-methyl-2,3-dihydro-1H-inden-1-yl)-1,4,7,10-tetraazacyclotetradecane-3,6,11,14-tetraone]
IC50: 0.95 nM
Max % inhibition: 105.6%

C[C@H]1C(=O)N[C@@H](CO)C(=O)N(C)[C@@]2(Cc3ccc(Cl)cc3)CCCN(C2)C(=O)[C@H](CC(F)(F)F)CC(=O)N1Cc1c(F)cc(Cl)cc1Oc1ccc(-c2cnc(CN(C)C)n2C)cc1 [Compound 82, (3S,7S,10S,13R)-6-(4-Chloro-2-(4-(2-((dimethylamino)methyl)-1-methyl-1H-imidazol-5-yl)phenoxy)-6-fluorobenzyl)-13-(4-chlorobenzyl)-10-(hydroxymethyl)-7,12-dimethyl-3-(2,2,2-trifluoroethyl)-1,6,9,12-tetraazabicyclo[11.3.1]heptadecane-2,5,8,11-tetraone]
IC50: 0.37 nM
Max % inhibition: 108.5%

C[C@H]1C(=O)N[C@@H](CO)C(=O)N[C@@]2(Cc3ccc(Cl)cc3)CCCN(C2)C(=O)[C@H](CC(F)(F)F)CC(=O)N1Cc1ccc(Cl)cc1Oc1ccc(-c2cnc(CN(C)C)n2C)cc1 [Compound 83, (3S,7S,10S,13R)-6-(4-Chloro-2-(4-(2-((dimethylamino)methyl)-1-methyl-1H-imidazol-5-yl)phenoxy)benzyl)-13-(4-chlorobenzyl)-10-(hydroxymethyl)-7-methyl-3-(2,2,2-trifluoroethyl)-1,6,9,12-tetraazabicyclo[11.3.1]heptadecane-2,5,8,11-tetraone]
IC50: 0.347 nM
Max % inhibition: 112.4%
